US20090186915A1, “Compositions and methods for treatment of glioblastoma, gliosarcoma, NSCLC, and head and neck cancer” (Unibioscreen S. A., priority 2006, published 2009)
Read-outs that look alike come from different tables or passages of the source.

Columns and labels:
[1] = system: A549; test: MTT colorimetric assay, A549 cells; assay type: cell-based; conditions: Homo sapiens, 72 h, 3 days of culturing, mean of six determinations, read-out: IC50 (μM) In Vitro Growth Inhibition
Protocol: The overall growth of human cancer cell lines was determined by means of the calorimetric MTT (3-[4,5-dimethylthiazol-2-yl]-diphenyl tetrazolium bromide; Sigma) assay, as detailed previously.

[2] = system: U-373 MG; test: Cell migration (phase-contrast microscopy); assay type: cell-based; conditions: Homo sapiens, U373 MG, 22 h, read-out: Maximum effects (cell migration); for Emax at 0.1 µM: at 10^−7 M
Protocol: Cells of different cancer lines, i.e. U-373 MG (Glioma cancer) and A549 (Lung cancer) were seeded on culture flask 48 hours before the migration experiment. On the test day, cells were treated with or without the compound of example 2 in closed Falcon dishes containing a buffered medium at a controlled temperature (37.0±0.1° C.) for 12 or 22 hours, as noted in the right column of table 3. The compound of example 2 was used at three non-cytotoxic concentrations (10^−6 M, 10^−7M, 10^−8 M). Migration of the cells was observed by means of a CCD-camera mounted on a phase-contrast microscope. Statistical analysis of the migration, with the non-parametric Mann-Whitney test, was established for 25% and 50% of the most motile cells and for the entire cell population.

[3] = system: DU-145; test: Apoptosis by Annexin V flow cytometry, DU-145; assay type: cell-based, human
Protocol: We used flow cytometry (according to the protocol found in Mijatovic et al. Neoplasia 2006) to determine the percentages of PC-3 and DU-145 positive cells for both Annexin V and propidium iodide and we observed that a maximum of 10% only of PC-3 or DU-145 cells underwent apoptotic processes following a treatment with 10 μM of the compound produced according to example 2 or example 7.
The determination of the percentage of cells undergoing apoptosis was performed using an Annexin V-FITC Apoptosis Detection Kit (Sigma) following the manufacturer's instructions. Each sample was evaluated in triplicate.

[4] = system: PC-3; test: Senescence-associated β-galactosidase staining, PC-3; assay type: cell-based, human; conditions: 10 μM, 72 hours
Protocol: After the indicated treatments, cells were washed in PBS, fixed for 3 to 5 minutes (at room temperature) in 2% formaldehyde/0.2% glutaraldehyde, washed and incubated at 37° C. (in the absence of CO2) with fresh senescence-associated β-Gal (SA-β-Gal) staining solution: 1 mg/ml of 5-bromo-4-chloro-3-indolyl […] (X-Gal; Sigma). Staining was evident within 2 to 4 hours and maximal after 12 to 16 hours. To detect lysosomal β-Gal, the citric acid/sodium phosphate used was pH 4.0. As described in the study of Dimri et al. [Proc Natl Acad Sci USA. 1995; 92:9363-9367.], after fixing and staining with X-Gal, the number of cells positive for the SA-β-Gal activity (intense blue staining) was then counted independently by two different individuals (on 400 cells/plate). Representative photographs (original magnifications, ×20) of stained cells from different experimental treatments were taken. As a positive control for SA-β-Gal expression, Adriamycin-treated cells were used.
Human PC-3 and DU-145 prostate cancer cells cultured in 0 or 10 μM UNBS5162 or 20 nM Adriamycin for 72 hours were evaluated by SA-β-Gal staining. The data clearly indicate that 10 μM [but not 1 μM or 5×1 μM] […] TMZ, as an inducer of autophagy but not of senescence, was used as a negative control.

[5] = system: murine and human hematopoietic stem and progenitor cells; test: HALO hematotoxicity assay, overall statement; assay type: cell-based
Protocol: Investigation of the hematotoxic potential of UNBS5162 was undertaken by HemoGenix (Colorado Springs, Colo.). The effects of UNBS5162 on stem and progenitor cell populations from murine and human bone marrow were assessed using HALO (Hematopoietic/Hematotoxicity Assay through Luminescence Output) technology. Stem and hematopoietic progenitor cell populations were isolated from mouse and human bone marrow samples, plated at a concentration of 1.0×10^4 cells/well and cultured for 5 and 7 days, respectively, in the presence of growth factors and increasing concentrations of UNBS5162 ranging from 0.5 nM to 50 μM. The proliferative or growth potential of cell populations was determined from intracellular ATP (iATP) concentrations and a luciferin/luciferase bioluminescence signal detection system. All samples were assayed in eight replicates. The results are presented as estimated inhibitory concentration (IC) values.

[6] = system: PC-3; test: Quantitative videomicroscopy, PC-3; assay type: cell-based, human
Protocol: Use was made of computer-assisted phase-contrast microscopy (quantitative videomicroscopy) in the attempt to elucidate an overall picture of UNBS5162's mechanism of action. […] In addition, 10 μM UNBS5162 caused a marked enlargement in PC-3 cells by the end of the 6-day treatment period compared with the start of the experiment.

[7] = system: Rb, pRb; test: Western blot of Rb and p-Rb, DU-145; assay type: cell-based, human; conditions: 10 μM
[8] = system: PC-3 Human Prostate Cancer Cells; test: Affymetrix whole genome microarray, gene targets; conditions: mRNA
Protocol: We performed a first experiment of evaluation of gene targets by means of Affymetrix whole genome microarray using human PC-3 cancer cells grown in vitro and treated with the compound of the invention (N-{2-[2-(dimethylamino)ethyl]-1,3-dioxo-2,3-dihydro-1H-benzo[de]isoquinolin-5-yl}urea) either one time at 1 μM or 10 μM, or 5 times a week (one time a day during five consecutive days) at 1 μM (Full genome analyses were performed at the VIB MicroArray Facility (UZ Gasthuisberg, Catholic University of Leuven, Belgium) using Affymetrix Human Genome U133 set Plus 2.0 (High Wycombe, United Kingdom).
Full genome-wide analyses were performed at the VIB MicroArray Facility (UZ Gasthuisberg, Catholic University of Leuven, Leuven, Belgium) using the Affymetrix Human Genome U133 set Plus 2.0 (High Wycombe, UK).
In addition to R, an open-source software environment for statistical computing, a set of functions called BioConductor was used for the analysis and comprehension of the genomic data. The quality controls in the Affymetrix microarray experiments were performed with the Simpleaffy package and agreed with Affymetrix guidelines. The background correction, expression quantification and normalization were performed using Robust Multichip Analysis. To select differentially expressed genes between two experimental conditions, probes for which no overlap occurred between intervals in the expression values obtained for each condition were first identified. The fold change between two experimental conditions was computed for each of these probes (without any value overlap) as the ratio between the two nearest unlog expression values observed for the two different conditions (i.e., the ratio closest to 1 between any two values from the two different conditions). Probes for which these ratios were above 2.0 or below 0.50 were then selected. The annotations of the genes finally selected in this way were retrieved from the Affymetrix Web site through the BioConductor package ghgu133plus2.h. […] This software package was then used to rank functional clusters by means of the statistical overrepresentation of individual genes in specific categories relative to all the genes in the same category on the microarray.

[9] = 1 μM once a day for five consecutive days

In the case of `CN(C)CCN1C(=O)c2cccc3cc(NC(N)=O)cc(c23)C1=O` [UNBS5162, N-{2-[2-(dimethylamino)ethyl]-1,3-dioxo-2,3-dihydro-1H-benzo[de]isoquinolin-5-yl}urea], the IC50 [1] is reported as 21.2 µM, the Emax at 0.1 µM ([2]; 22 hours on the 25% of the most motile cells) is reported as -29% and the Emax at 0.1 µM ([2]; 22 hours on the 50% of the most motile cells) is reported as -24%. For the same molecule, the Emax ([2]; 22 hours on the 100% of cells, at the 10^−7 M) was -20%, the “cells undergoing apoptotic processes (Annexin V and propidium iodide positive)” value ([3]; 10 μM) was at most 10% and the “induction of real (early) apoptosis” value ([3]; flow cytometry) was “does not induce real (early) apoptosis”. The “late apoptotic and necrotic events” value ([3]; flow cytometry) was “induces late apoptotic and necrotic events”, the SA-β-Gal expression [4] was “Limited SA-β-Gal expression” and the “concentrations that were toxic (inhibited proliferation)” value [5] was “higher than 1 μM”. For the same molecule, the “cell dynamics (videomicroscopy)” value ([6]; 1 μM) was “induced no detectable changes”, the “cell population development (videomicroscopy)” value ([6]; 10 μM, six days of observation) was “prevented PC-3 cell population development” and the Rb protein expression [7] was “a decrease but not the complete disappearance of Rb protein and E2F1 expression”. For the same molecule, the “ALDH1A3 Expression Level: 5 × 1 μM” value [8, 9] was 3.7, the “ASNS Expression Level: 5 × 1 μM” value [8, 9] was 0.9 and the “BCAT1 Expression Level: 5 × 1 μM” value [8, 9] was 0.8. The “CBS Expression Level: 5 × 1 μM” value [8, 9] was 1.0, the “CTH Expression Level: 5 × 1 μM” value [8, 9] was 0.9 and the “H2BFS Expression Level: 5 × 1 μM” value [8, 9] was 0.5. For the same molecule, the “HIST1H2AC Expression Level: 5 × 1 μM” value [8, 9] was 0.2, the “HIST1H2BC Expression Level: 5 × 1 μM” value [8, 9] was 0.7 and the “HIST1H2BD Expression Level: 5 × 1 μM” value [8, 9] was 0.3. For the same molecule, the “HIST1H2BG Expression Level: 5 × 1 μM” value [8, 9] was 0.5, the “HIST1H2BK Expression Level: 5 × 1 μM” value [8, 9] was 0.3 and the “HIST1H3D Expression Level: 5 × 1 μM” value [8, 9] was 0.6. For the same molecule, the “HIST1H3H Expression Level: 5 × 1 μM” value [8, 9] was 0.6, the “HIST2H2AA Expression Level: 5 × 1 μM” value [8, 9] was 0.5 and the “HIST2H2BE Expression Level: 5 × 1 μM” value [8, 9] was 0.3. The “PHGDH Expression Level: 5 × 1 μM” value [8, 9] was 1.0, the “SARS Expression Level: 5 × 1 μM” value [8, 9] was 0.9 and the “SAT Expression Level: 5 × 1 μM” value [8, 9] was 0.8. For the same molecule, the “ALDH1A3 CT versus 1 μM” value ([8]; one time at 1 μM) was 0.7, the “ASNS CT versus 1 μM” value ([8]; one time at 1 μM) was 1.3 and the “CBS CT versus 1 μM” value ([8]; one time at 1 μM) was 1.0. The “CTH CT versus 1 μM” value ([8]; one time at 1 μM) was 1.1, the “H2AFY CT versus 1 μM” value ([8]; one time at 1 μM) was 1.7 and the “HIST1H2AC CT versus 1 μM” value ([8]; one time at 1 μM) was 1.0. The “HIST1H3D CT versus 1 μM” value ([8]; one time at 1 μM) was 0.9, the “PHGDH CT versus 1 μM” value ([8]; one time at 1 μM) was 1.4 and the “SARS CT versus 1 μM” value ([8]; one time at 1 μM) was 1.0. The “SAT CT versus 1 μM” value ([8]; one time at 1 μM) was 1.1, the “ALDH1A3 Expression Level: 10 μM” value ([8]; one time at 10 μM) was 2.3 and the “ASNS Expression Level: 10 μM” value ([8]; one time at 10 μM) was 3.6. For the same molecule, the “BCAT1 Expression Level: 10 μM” value ([8]; one time at 10 μM) was 2.1, the “CBS Expression Level: 10 μM” value ([8]; one time at 10 μM) was 2.2 and the “CTH Expression Level: 10 μM” value ([8]; one time at 10 μM) was 2.0. The “H2AFY Expression Level: 10 μM” value ([8]; one time at 10 μM) was 2.6, the “H2BFS Expression Level: 10 μM” value ([8]; one time at 10 μM) was 0.5 and the “HIST1H2AC Expression Level: 10 μM” value ([8]; one time at 10 μM) was 0.4. The “HIST1H2BC Expression Level: 10 μM” value ([8]; one time at 10 μM) was 0.4, the “HIST1H2BD Expression Level: 10 μM” value ([8]; one time at 10 μM) was 0.3 and the “HIST1H2BG Expression Level: 10 μM” value ([8]; one time at 10 μM) was 0.4. The “HIST1H2BK Expression Level: 10 μM” value ([8]; one time at 10 μM) was 0.5, the “HIST1H3D Expression Level: 10 μM” value ([8]; one time at 10 μM) was 0.4 and the “HIST1H3H Expression Level: 10 μM” value ([8]; one time at 10 μM) was 0.3. For the same molecule, the “HIST2H2AA Expression Level: 10 μM” value ([8]; one time at 10 μM) was 0.4, the “HIST2H2BE Expression Level: 10 μM” value ([8]; one time at 10 μM) was 0.5 and the “PHGDH Expression Level: 10 μM” value ([8]; one time at 10 μM) was 2.4. The “SARS Expression Level: 10 μM” value ([8]; one time at 10 μM) was 2.6 and the “SAT Expression Level: 10 μM” value ([8]; one time at 10 μM) was 0.5.
